Test results as given in US9988400B2 (Genentech, Inc., priority 2013, dated 2018).

What follows are molecules tested against T1, HEK cells stably transfected with tetracycline inducible hNR1 and hNR2A (Homo sapiens, UniProt Q05586+Q12879) (assay: Assay 1: Cell-Based Assay, cytosolic calcium response to positive allosteric modulators (with 30 μM glycine and 300 nM L-glutamate, EC30)). Details: Table 3; cytosolic calcium response, with 30 μM glycine and 300 nM L-glutamate (EC30); — = no plateau was reached.
T1 construct: expressed in transfected cells; host or cells: HEK cells, stably transfected, tetracycline/doxycycline inducible
T1 sequence (Q12879 23-1464, other chains not shown): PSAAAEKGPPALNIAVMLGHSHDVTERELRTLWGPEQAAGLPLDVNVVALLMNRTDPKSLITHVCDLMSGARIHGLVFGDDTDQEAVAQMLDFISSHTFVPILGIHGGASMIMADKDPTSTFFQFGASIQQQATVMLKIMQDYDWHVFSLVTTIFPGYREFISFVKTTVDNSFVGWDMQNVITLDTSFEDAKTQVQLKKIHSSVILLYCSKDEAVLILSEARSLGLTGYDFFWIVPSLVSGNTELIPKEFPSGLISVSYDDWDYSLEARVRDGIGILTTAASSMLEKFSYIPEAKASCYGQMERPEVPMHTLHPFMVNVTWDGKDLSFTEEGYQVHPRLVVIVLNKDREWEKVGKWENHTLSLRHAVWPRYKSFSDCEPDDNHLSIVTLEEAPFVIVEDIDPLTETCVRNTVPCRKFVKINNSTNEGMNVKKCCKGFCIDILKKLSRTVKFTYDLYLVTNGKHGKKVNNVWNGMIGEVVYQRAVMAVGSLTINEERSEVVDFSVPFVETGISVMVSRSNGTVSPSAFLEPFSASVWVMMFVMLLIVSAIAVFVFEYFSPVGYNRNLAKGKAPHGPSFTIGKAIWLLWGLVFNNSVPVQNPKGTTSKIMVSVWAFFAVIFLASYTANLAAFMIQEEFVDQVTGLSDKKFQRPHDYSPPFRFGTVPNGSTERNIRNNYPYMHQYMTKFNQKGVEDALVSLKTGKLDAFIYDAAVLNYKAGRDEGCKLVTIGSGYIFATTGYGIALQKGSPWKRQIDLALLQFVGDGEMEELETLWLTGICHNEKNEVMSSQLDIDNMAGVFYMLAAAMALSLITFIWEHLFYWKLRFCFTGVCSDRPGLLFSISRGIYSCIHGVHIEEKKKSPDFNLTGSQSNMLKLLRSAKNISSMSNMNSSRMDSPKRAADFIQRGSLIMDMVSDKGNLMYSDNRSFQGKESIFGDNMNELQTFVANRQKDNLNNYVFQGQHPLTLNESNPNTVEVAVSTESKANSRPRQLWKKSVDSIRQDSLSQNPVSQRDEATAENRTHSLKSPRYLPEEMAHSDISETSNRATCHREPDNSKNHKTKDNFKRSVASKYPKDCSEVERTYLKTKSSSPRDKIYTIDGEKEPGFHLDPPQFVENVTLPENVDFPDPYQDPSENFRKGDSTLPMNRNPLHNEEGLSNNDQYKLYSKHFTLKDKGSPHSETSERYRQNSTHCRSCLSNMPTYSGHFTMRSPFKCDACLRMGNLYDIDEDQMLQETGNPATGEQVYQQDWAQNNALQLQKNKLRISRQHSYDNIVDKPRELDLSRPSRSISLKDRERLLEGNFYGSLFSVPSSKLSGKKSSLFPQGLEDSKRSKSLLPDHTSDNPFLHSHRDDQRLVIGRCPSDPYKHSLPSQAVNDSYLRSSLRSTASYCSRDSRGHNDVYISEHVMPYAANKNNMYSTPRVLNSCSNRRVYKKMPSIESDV
Outline: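 Cells induced 24 h with 7.5 μg mL^−1 doxycycline plus 500 μM (+)-ketamine, loaded 60 min at 37 °C with calcium dye in Mg-free HBSS (1.8 mM Ca, probenecid, 10 μM (+)-ketamine, pH 7.15). Peak RFU over 5 min after compound addition, scaled to 100 μM L-glutamate (100%) and 0 μM (0%); four-parameter Hill fit for EC50, max % if no plateau.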

Point of comparison: `Cc1sc2nc(Cn3nc(C(F)(F)F)cc3Cl)cc(=O)n2c1C1CC1C#N` (centres unmarked) [compound 104, 2-[7-[[5-chloro-3-(trifluoromethyl)pyrazol-1-yl]methyl]-2-methyl-5-oxo-thiazolo[3,2-a]pyrimidin-3-yl]cyclopropanecarbonitrile], EC50 34.1 nM. Against it:
- Cc1sc2nc(Oc3cccc(C#N)c3F)cc(=O)n2c1C1CC1C(F)(F)F (centres unmarked) [compound 77, 2-fluoro-3-[2-methyl-5-oxo-3-[2-(trifluoromethyl)cyclopropyl]thiazolo[3,2-a]pyrimidin-7-yl]oxy-benzonitrile] — 7.9-fold higher, 271 nM
- CNC(=O)Cc1c(C(F)(F)F)sc2nc(Cn3nc(C(F)(F)F)cc3C3CC3)cc(=O)n12 [compound 78, 2-[7-[[5-cyclopropyl-3-(trifluoromethyl)pyrazol-1-yl]methyl]-5-oxo-2-(trifluoromethyl)thiazolo[3,2-a]pyrimidin-3-yl]-N-methyl-acetamide] — 87-fold higher, 2960 nM
- CNC(=O)Cc1c(C(F)(F)F)sc2nc(Cn3nc(C4CC4)cc3C(F)(F)F)cc(=O)n12 [compound 79, 2-[7-[[3-cyclopropyl-5-(trifluoromethyl)pyrazol-1-yl]methyl]-5-oxo-2-(trifluoromethyl)thiazolo[3,2-a]pyrimidin-3-yl]-N-methyl-acetamide] — 420-fold higher, 14300 nM
- Cc1sc2nc(Cc3cccc(C(F)(F)F)c3F)cc(=O)n2c1Cc1ncc[nH]1 [compound 81, 7-[[2-fluoro-3-(trifluoromethyl)phenyl]methyl]-3-(1H-imidazol-2-ylmethyl)-2-methyl-thiazolo[3,2-a]pyrimidin-5-one] — 1500-fold higher, 52000 nM
- CCNC(=O)c1c(C)sc2nc(CN(CC)c3ccc(F)cc3)cc(=O)n12 [compound 82, N-ethyl-7-[(N-ethyl-4-fluoro-anilino)methyl]-2-methyl-5-oxo-thiazolo[3,2-a]pyrimidine-3-carboxamide] — 2.3-fold higher, 78.7 nM
- CCNC(=O)c1c(C(F)(F)F)sc2nc(CN(CC)c3ccc(F)cc3)cc(=O)n12 [compound 83, N-ethyl-7-[(N-ethyl-4-fluoro-anilino)methyl]-5-oxo-2-(trifluoromethyl)thiazolo[3,2-a]pyrimidine-3-carboxamide] — 4.5-fold higher, 154 nM
- CC1CC1c1c(C(F)(F)F)sc2nc(Cc3cccc(C#N)c3F)cc(=O)n12 (centres unmarked) [compound 84, 2-fluoro-3-[[3-(2-methylcyclopropyl)-5-oxo-2-(trifluoromethyl)thiazolo[3,2-a]pyrimidin-7-yl]methyl]benzonitrile] — 330-fold higher, 11200 nM
- CC1CC1c1c(Cl)sc2nc(Cc3cccc(C#N)c3F)cc(=O)n12 (centres unmarked) [compound 85, 3-[[2-chloro-3-(2-methylcyclopropyl)-5-oxo-thiazolo[3,2-a]pyrimidin-7-yl]methyl]-2-fluoro-benzonitrile] — 70-fold higher, 2390 nM
- Cc1sc2nc(Oc3cccc(C(F)(F)F)c3F)cc(=O)n2c1C1CC1C (centres unmarked) [compound 86, 7-[2-fluoro-3-(trifluoromethyl)phenoxy]-2-methyl-3-(2-methylcyclopropyl)thiazolo[3,2-a]pyrimidin-5-one] — 310-fold higher, 10500 nM
- CCNC(=O)c1c(C(C)C)sc2nc(Cc3cccc(C(F)(F)F)c3F)cc(=O)n12 [compound 87, N-ethyl-7-[[2-fluoro-3-(trifluoromethyl)phenyl]methyl]-2-isopropyl-5-oxo-thiazolo[3,2-a]pyrimidine-3-carboxamide] — 1200-fold higher, 42000 nM
- N#Cc1cccc(Cc2cc(=O)n3c(C4CC4C(F)(F)F)c(C(F)(F)F)sc3n2)c1F (centres unmarked) [compound 88, 2-fluoro-3-[[5-oxo-2-(trifluoromethyl)-3-[2-(trifluoromethyl)cyclopropyl]thiazolo[3,2-a]pyrimidin-7-yl]methyl]benzonitrile] — 110-fold higher, 3700 nM
- O=c1cc(Cn2nc(C(F)(F)F)cc2Cl)nc2sc3c(n12)CCC3 [compound 89] — 270-fold higher, 9040 nM
- O=c1cc(Cn2nc(Cl)cc2C(F)(F)F)nc2sc3c(n12)CCC3 [compound 90] — 36-fold higher, 1220 nM
- CCNC(=O)c1c(OC)sc2nc(Cc3cccc(C(F)(F)F)c3F)cc(=O)n12 [compound 91, N-Ethyl-7-[[2-fluoro-3-(trifluoromethyl)phenyl]methyl]-2-methoxy-5-oxo-thiazolo[3,2-a]pyrimidine-3-carboxamide] — 30-fold higher, 1030 nM
- O=c1cc(Cc2cccc(C(F)(F)F)c2F)nc2sc3c(n12)C(CO)CC3 (centres unmarked) [compound 92] — 1400-fold higher, 47100 nM
- CCc1sc2nc(Cc3cccc(C(F)(F)F)c3F)cc(=O)n2c1C(=O)NC [compound 93, 2-ethyl-7-[[2-fluoro-3-(trifluoromethyl)phenyl]methyl]-N-methyl-5-oxo-thiazolo[3,2-a]pyrimidine-3-carboxamide] — 54-fold higher, 1830 nM
- N#CC1CC1c1c(C(F)(F)F)sc2nc(Cc3cccc(C(F)(F)F)c3F)cc(=O)n12 (centres unmarked) [compound 94, 2-[7-[[2-fluoro-3-(trifluoromethyl)phenyl]methyl]-5-oxo-2-(trifluoromethyl)thiazolo[3,2-a]pyrimidin-3-yl]cyclopropanecarbonitrile] — 61-fold higher, 2080 nM
- O=c1cc(Cn2nc(C(F)(F)F)cc2C2CC2)nc2sc3c(n12)C(CO)CC3 (centres unmarked) [compound 95] — 270-fold higher, 9200 nM
- CNC(=O)c1c(C)sc2nc(Cn3nc(C(F)(F)F)cc3Cl)cc(=O)n12 [compound 96, 7-[[5-chloro-3-(trifluoromethyl)pyrazol-1-yl]methyl]-N,2-dimethyl-5-oxo-thiazolo[3,2-a]pyrimidine-3-carboxamide] — 35-fold higher, 1210 nM
- CNC(=O)c1c(C)sc2nc(Cn3nc(Cl)cc3C(F)(F)F)cc(=O)n12 [compound 97, 7-[[3-chloro-5-(trifluoromethyl)pyrazol-1-yl]methyl]-N,2-dimethyl-5-oxo-thiazolo[3,2-a]pyrimidine-3-carboxamide] — 150-fold higher, 5110 nM
- CNC(=O)Cc1c(C)sc2nc(Cn3nc(C(F)(F)F)cc3Cl)cc(=O)n12 [compound 98, 2-[7-[[5-chloro-3-(trifluoromethyl)pyrazol-1-yl]methyl]-2-methyl-5-oxo-thiazolo[3,2-a]pyrimidin-3-yl]-N-methyl-acetamide] — 46-fold higher, 1570 nM
- CNC(=O)Cc1c(C)sc2nc(Cn3nc(Cl)cc3C(F)(F)F)cc(=O)n12 [compound 99, 2-[7-[[3-chloro-5-(trifluoromethyl)pyrazol-1-yl]methyl]-2-methyl-5-oxo-thiazolo[3,2-a]pyrimidin-3-yl]-N-methyl-acetamide] — 110-fold higher, 3690 nM
- Cc1sc2nc(Cc3cccc(C(F)(F)F)c3F)cc(=O)n2c1C1CC1O (centres unmarked) [compound 100, 7-[[2-fluoro-3-(trifluoromethyl)phenyl]methyl]-3-(2-hydroxycyclopropyl)-2-methyl-thiazolo[3,2-a]pyrimidin-5-one] — 340-fold higher, 11600 nM
- Cc1sc2nc(Oc3cccc(C(F)(F)F)c3F)cc(=O)n2c1C1CC1C#N (centres unmarked) [compound 101, 2-[7-[2-fluoro-3-(trifluoromethyl)phenoxy]-2-methyl-5-oxo-thiazolo[3,2-a]pyrimidin-3-yl]cyclopropanecarbonitrile] — 110-fold higher, 3710 nM
- Cc1sc2nc(Cn3nc(C(F)(F)F)cc3Cl)cc(=O)n2c1C1CC1CO (centres unmarked) [compound 102, 7-[[5-chloro-3-(trifluoromethyl)pyrazol-1-yl]methyl]-3-[2-(hydroxymethyl)cyclopropyl]-2-methyl-thiazolo[3,2-a]pyrimidin-5-one] — 1.6-fold higher, 54.7 nM
- Cc1sc2nc(Cn3nc(Cl)cc3C(F)(F)F)cc(=O)n2c1C1CC1CO (centres unmarked) [compound 103, 7-[[3-chloro-5-(trifluoromethyl)pyrazol-1-yl]methyl]-3-[2-(hydroxymethyl)cyclopropyl]-2-methyl-thiazolo[3,2-a]pyrimidin-5-one] — 7.4-fold higher, 251 nM
- CCNC(=O)c1c(C#N)sc2nc(Cc3cccc(C(F)(F)F)c3F)cc(=O)n12 [compound 105, 2-Cyano-N-ethyl-7-[[2-fluoro-3-(trifluoromethyl)phenyl]methyl]-5-oxo-thiazolo[3,2-a]pyrimidine-3-carboxamide] — 110-fold higher, 3900 nM
- Cc1sc2nc(Cc3cccc(C(F)(F)F)c3F)cc(=O)n2c1C(=O)NC(C)C [compound 106, 7-[[2-fluoro-3-(trifluoromethyl)phenyl]methyl]-N-isopropyl-2-methyl-5-oxo-thiazolo[3,2-a]pyrimidine-3-carboxamide] — 100-fold higher, 3400 nM
- Cc1sc2nc(Oc3cccc(C#N)c3F)cc(=O)n2c1C1CC1C (centres unmarked) [compound 107, 2-fluoro-3-[2-methyl-3-(2-methylcyclopropyl)-5-oxo-thiazolo[3,2-a]pyrimidin-7-yl]oxy-benzonitrile] — 29-fold higher, 994 nM
- Cc1sc2nc(Cn3nc(C(F)(F)F)cc3Cl)cc(=O)n2c1C(C)(C)O [compound 108, 7-[[5-chloro-3-(trifluoromethyl)pyrazol-1-yl]methyl]-3-(1-hydroxy-1-methyl-ethyl)-2-methyl-thiazolo[3,2-a]pyrimidin-5-one] — 7.2-fold higher, 247 nM
- Cc1sc2nc(Cn3nc(Cl)cc3C(F)(F)F)cc(=O)n2c1C(C)(C)O [compound 109, 7-[[3-chloro-5-(trifluoromethyl)pyrazol-1-yl]methyl]-3-(1-hydroxy-1-methyl-ethyl)-2-methyl-thiazolo[3,2-a]pyrimidin-5-one] — 22-fold higher, 734 nM
- Cc1sc2nc(Cn3nc(C(F)(F)F)cc3Cl)cc(=O)n2c1C(C)O (centres unmarked) [compound 110, 7-[[5-chloro-3-(trifluoromethyl)pyrazol-1-yl]methyl]-3-(1-hydroxyethyl)-2-methyl-thiazolo[3,2-a]pyrimidin-5-one] — 55-fold higher, 1880 nM
- Cc1sc2nc(Cn3nc(Cl)cc3C(F)(F)F)cc(=O)n2c1C(C)O (centres unmarked) [compound 111, 7-[[3-chloro-5-(trifluoromethyl)pyrazol-1-yl]methyl]-3-(1-hydroxyethyl)-2-methyl-thiazolo[3,2-a]pyrimidin-5-one] — 180-fold higher, 6000 nM
- CCC(C)NC(=O)c1c(C)sc2nc(Cc3cccc(C(F)(F)F)c3F)cc(=O)n12 (centres unmarked) [compound 112, 7-[[2-fluoro-3-(trifluoromethyl)phenyl]methyl]-2-methyl-5-oxo-N-sec-butyl-thiazolo[3,2-a]pyrimidine-3-carboxamide] — 24-fold higher, 825 nM
